Data reported in patent US20250179017A1 (GUANGDONG NEWOPP BIOPHARMACEUTICALS CO., LTD., priority 2022, published 2025).

Tests used:
human EP4 (EP4R) = molecular target: T1, human EP4 (EP4R) (Homo sapiens, UniProt P35408); test: EP4 antagonist assay (HEK-293 CNG membrane potential cAMP assay / 293T SEAP reporter assay, PGE2-stimulated); format: cell-based; conditions: EP4 antagonist activity; concentration for inhibition of signal compared to DMSO
T1 construct: Cayman Chemical (Human EP4 Reporter Assay Kit)
T1 sequence (P35408 whole entry): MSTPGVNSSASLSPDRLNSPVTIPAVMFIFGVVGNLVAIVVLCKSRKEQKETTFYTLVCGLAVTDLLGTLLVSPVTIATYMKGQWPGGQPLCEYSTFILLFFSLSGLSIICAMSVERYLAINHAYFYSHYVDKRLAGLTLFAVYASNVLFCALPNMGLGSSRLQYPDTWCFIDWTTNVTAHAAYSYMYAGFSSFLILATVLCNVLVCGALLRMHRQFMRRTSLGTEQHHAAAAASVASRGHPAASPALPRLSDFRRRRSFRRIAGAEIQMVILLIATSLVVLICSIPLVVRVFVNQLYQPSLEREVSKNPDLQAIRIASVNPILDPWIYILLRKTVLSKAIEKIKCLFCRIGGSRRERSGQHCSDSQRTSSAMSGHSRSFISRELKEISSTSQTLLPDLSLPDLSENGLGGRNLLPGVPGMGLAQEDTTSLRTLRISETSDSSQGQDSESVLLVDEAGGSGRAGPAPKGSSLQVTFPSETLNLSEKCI
Text: 1. The HEK-293 CNG (Cyclic Nucleotide Gated) cell line expressing a modified CNG channel that leads to cell membrane depolarization in response to elevated intracellular cAMP levels, which can be measured using a fluorescent membrane potential dye, was engineered to express human EP2 (PTGER2) or EP4 (EP4R). The resulting cell line ACTOne™ PTGER2 or ACTOne™ EP4R as well as the fluorescent membrane potential dye were purchased from eEnzyme (Gaithersburg, MD, US) and used in this assay. Briefly, cells were plated at 1.2×10^4 cells/well in 20 μL DMEM supplemented with 2% Fetal Bovine Serum (FBS, VWR International), 1x Penicillin/Streptomycin (GenClone), 0.2 μg/mL puromycin (InvivoGen) and 50 μg/mL G418 (InvivoGen) on a 384 well plate (Greiner). The next day, cells were dye-loaded with 20 μL/well of 1x Dye-loading solution (eENZYME) following the manufacturer's instruction. After 2 hours of incubation at room temperature (RT) in the dark, a pre-read was made to obtain the background signals using CLARIOstar plate reader (BMG LABTECH, Germany) with the following filter settings: excitation=530/20 nm, emission=590/20 nm. Next, a serial dilution of compound (plus a DMSO control) were added to the plate (5 μL/well) and the reaction was incubated at RT for 15 min before adding 5 μL of PGE2 to every well for a final concentration of 5 nM. All wells were duplicated. The plate was then further incubated at RT for 30 min prior to a final read with the same machine settings. Background-subtracted signals were used to calculate IC50 values.
2. Human EP2 and EP4 Reporter Assay Kits were purchased from Cayman Chemical (Ann Arbor, MI, USA). The assay was performed following the provided User Manual. Briefly, a reverse transfection was performed by seeding 6.0×10^4 of 293T cells (ATCC) to each well of the provided Strip Plate coated with a proprietary transfection complex containing DNA constructs for expressing human EP2 or EP4 and a cAMP response element regulated secreted alkaline phosphatase (SEAP) reporter, in 200 μL DMEM supplemented with 2% FBS and incubated for 20-24 hours at 37° C. with 5% CO2. After the incubation, the culture medium was carefully removed, and the cells were replenished with 150 μL pre-warmed serum-free medium. PGE2 and test compounds were prepared together at 4x the desired final concentration, and 50 μL was added to each assigned well with the final concentration of 13 nM and 2 nM PGE2 for EP2 and EP4 assay, respectively. After 6-8 hours of incubation, 10 μL media from each well was transferred to corresponding well of a new plate, which was then sealed and incubated at 65° C. for 30 min. The plate was then cooled down to RT and 50 μL SEAP substrate was added to each well. Luminescence signal was measured using a CLARIOstar plate reader.
The IC50 value was determined as the concentration for […] inhibition of signal compared to DMSO (A: IC50≤100 nM; B: IC50 between 100 nM and 1,000 nM; C: IC50≥1,000 nM).

human EP2 (PTGER2) = molecular target: T2, human EP2 (PTGER2) (Homo sapiens, UniProt P43116); test: EP2 antagonist assay (HEK-293 CNG membrane potential cAMP assay / 293T SEAP reporter assay, PGE2-stimulated); format: cell-based; conditions: EP2 antagonist activity; concentration for 50% inhibition of signal compared to DMSO
T2 construct: Cayman Chemical (Human EP2 Reporter Assay Kit)
T2 sequence (P43116 whole entry): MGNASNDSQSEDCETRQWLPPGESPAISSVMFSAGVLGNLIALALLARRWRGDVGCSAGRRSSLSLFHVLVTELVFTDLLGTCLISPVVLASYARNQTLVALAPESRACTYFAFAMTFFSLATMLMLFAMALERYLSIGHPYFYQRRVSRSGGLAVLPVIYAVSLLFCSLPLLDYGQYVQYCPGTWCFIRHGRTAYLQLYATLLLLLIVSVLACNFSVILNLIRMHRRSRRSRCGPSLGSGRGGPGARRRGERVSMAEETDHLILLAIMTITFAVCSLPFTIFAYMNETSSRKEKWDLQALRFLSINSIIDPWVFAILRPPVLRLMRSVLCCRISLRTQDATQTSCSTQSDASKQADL
Method in brief: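 Two formats. In a CRE-SEAP reporter assay, reverse-transfected 293T cells received compound with PGE2 (13 nM final) for 6-8 h, then luminescence was read. In the ACTOne CNG format, HEK-293 cells were preincubated with compound for 15 min at RT, stimulated with 5 nM PGE2 for 30 min, and read by membrane-potential dye fluorescence. IC50 was taken versus DMSO.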

Compound | IC50 (human EP4 (EP4R)) | IC50 (human EP2 (PTGER2))
O=C(O)c1ccc(CNC(=O)c2cc(-c3ccc(F)cc3)cc3ccn(Cc4ccc(C(F)(F)F)cc4)c23)cc1 [Example 1, 4-((5-(4-fluorophenyl)-1-(4-(trifluoromethyl)benzyl)-1H-indole-7-carboxamido)methyl)benzoic acid] | ≤ 100 nM | < 100 nM
O=C(O)c1ccc(CNC(=O)c2cc(-c3ccccc3)cc3ccn(Cc4ccc(C(F)(F)F)cc4)c23)cc1 [Example 2, 4-((5-phenyl-1-(4-(trifluoromethyl)benzyl)-1H-indole-7-carboxamido)methyl)benzoic acid] | ≤ 100 nM | < 100 nM
N#Cc1cccc(-c2cc(C(=O)NCc3ccc(C(=O)O)cc3)c3c(ccn3Cc3ccc(C(F)(F)F)cc3)c2)c1 [Example 7, 4-((5-(3-cyanophenyl)-1-(4-(trifluoromethyl)benzyl)-1H-indole-7-carboxamido)methyl)benzoic acid] | ≤ 100 nM | < 100 nM
O=C(O)c1ccc(CNC(=O)c2cc(-c3cc(F)cc(F)c3)cc3ccn(Cc4ccc(C(F)(F)F)cc4)c23)cc1 [Example 9, 4-((5-(3,5-difluorophenyl)-1-(4-(trifluoromethyl)benzyl)-1H-indole-7-carboxamido)methyl)benzoic acid] | ≤ 100 nM | < 100 nM
O=C(O)c1ccc(C2(NC(=O)c3ccc(Nc4ccccc4)c4ccn(Cc5ccc(C(F)(F)F)cc5)c34)CC2)cc1 [Example 44, 4-(1-(4-(phenylamino)-1-(4-(trifluoromethyl)benzyl)-1H-indole-7-carboxamido)cyclopropyl)benzoic acid] | ≤ 100 nM | < 100 nM
C[C@H](NC(=O)c1cc(-c2ccc(F)cc2)cc2ccn(Cc3ccc(C(F)(F)F)cc3)c12)c1ccc(C(=O)O)cc1 [Example 50, (S)-4-(1-(5-(4-fluorophenyl)-1-(4-(trifluoromethyl)benzyl)-1H-indole-7-carboxamido)ethyl) benzoic acid] | ≤ 100 nM | < 100 nM
C[C@H](NC(=O)c1cc(-c2ccccc2)cc2ccn(Cc3ccc(C(F)(F)F)cc3)c12)c1ccc(C(=O)O)cc1 [Example 51, (S)-4-(1-(5-phenyl-1-(4-(trifluoromethyl)benzyl)-1H-indole-7-carboxamido)ethyl) benzoic acid] | ≤ 100 nM | < 100 nM
C[C@H](NC(=O)c1cc(-c2cccc(C#N)c2)cc2ccn(Cc3ccc(C(F)(F)F)cc3)c12)c1ccc(C(=O)O)cc1 [Example 52, (S)-4-(1-(5-(3-cyanophenyl)-1-(4-(trifluoromethyl)benzyl)-1H-indole-7-carboxamido)ethyl) benzoic acid] | ≤ 100 nM | < 100 nM
O=C(O)c1ccc(CNC(=O)c2ccc(Nc3ccccc3)c3ccn(Cc4ccc(C(F)(F)F)cc4)c23)cc1 [Example 57, 4-((4-(phenylamino)-1-(4-(trifluoromethyl)benzyl)-1H-indole-7-carboxamido)methyl)benzoic acid] | 100 to 1000 nM | < 100 nM
O=C(O)c1ccc(CNC(=O)c2ccc(Nc3cc(F)cc(F)c3)c3ccn(Cc4ccc(C(F)(F)F)cc4)c23)cc1 [Example 69, 4-((4-((3,5-difluorophenyl)amino)-1-(4-(trifluoromethyl)benzyl)-1H-indole-7-carboxamido)methyl)benzoic acid] | 100 to 1000 nM | < 100 nM
C[C@H](NC(=O)c1ccc(Nc2ccccc2)c2ccn(Cc3ccc(C(F)(F)F)cc3)c12)c1ccc(C(=O)O)cc1 [Example 74, (S)-4-(1-(4-(phenylamino)-1-(4-(trifluoromethyl)benzyl)-1H-indole-7-carboxamido)ethyl)benzoic acid] | ≤ 100 nM | < 100 nM
COc1cccc(-c2cc(C(=O)NCc3ccc(C(=O)O)cc3)c3c(ccn3Cc3ccc(C(F)(F)F)cc3)c2)c1 [Example 76, 4-((5-(3-methoxyphenyl)-1-(4-(trifluoromethyl)benzyl)-1H-indole-7-carboxamido)methyl)benzoic acid] | ≤ 100 nM | < 100 nM
O=C(O)c1ccc(CNC(=O)c2cc(-c3cccnc3)cc3ccn(Cc4ccc(C(F)(F)F)cc4)c23)cc1 [Example 78, 4-((5-(pyridin-3-yl)-1-(4-(trifluoromethyl)benzyl)-1H-indole-7-carboxamido)methyl)benzoic acid] | ≤ 100 nM | < 100 nM
O=C(O)c1ccc(CNC(=O)c2cc(-c3ccncc3)cc3ccn(Cc4ccc(C(F)(F)F)cc4)c23)cc1 [Example 80, 4-((5-(pyridin-4-yl)-1-(4-(trifluoromethyl)benzyl)-1H-indole-7-carboxamido)methyl)benzoic acid] | ≤ 100 nM | < 100 nM
CC(C)(O)c1cccc(-c2cc(C(=O)NCc3ccc(C(=O)O)cc3)c3c(ccn3Cc3ccc(C(F)(F)F)cc3)c2)c1 [Example 85, 4-((5-(3-(2-hydroxypropan-2-yl)phenyl)-1-(4-(trifluoromethyl)benzyl)-1H-indole-7-carboxamido)methyl)benzoic acid] | ≤ 100 nM | 100 to 1000 nM
O=C(O)c1ccc(CNC(=O)c2cc(-c3ccccc3F)cc3ccn(Cc4ccc(C(F)(F)F)cc4)c23)cc1 [Example 87, 4-((5-(2-fluorophenyl)-1-(4-(trifluoromethyl)benzyl)-1H-indole-7-carboxamido)methyl)benzoic acid] | ≤ 100 nM | < 100 nM
O=C(O)c1ccc(CNC(=O)c2cc(-c3ccc(F)cc3)cc3cnn(Cc4ccc(C(F)(F)F)cc4)c23)cc1 [Example 96, 4-((5-(4-fluorophenyl)-1-(4-(trifluoromethyl)benzyl)-1H-indazole-7-carboxamido)methyl)benzoic acid] | ≤ 100 nM | < 100 nM
C[C@H](NC(=O)c1cc(-c2ccc(F)c(F)c2)cc2ccn(Cc3ccc(-c4ccc(F)cc4)cc3)c12)c1ccc(C(=O)O)cc1 [Example 215, (S)-4-(1-(5-(3,4-difluorophenyl)-1-((4′-fluoro-[1,1′-biphenyl]-4-yl)methyl)-1H-indole-7-carboxamido)ethyl)benzoic acid] | – | < 100 nM
O=C(O)c1ccc(CNC(=O)c2cc(-c3ccc(F)c(F)c3)cc3ccn(Cc4ccc5ccccc5c4)c23)cc1 [Example 216, 4-((5-(3,4-difluorophenyl)-1-(naphthalen-2-ylmethyl)-1H-indole-7-carboxamido)methyl)benzoic acid] | – | < 100 nM
C[C@H](NC(=O)c1cc(-c2ccc(F)c(F)c2)cc2ccn(Cc3ccc4ccccc4c3)c12)c1ccc(C(=O)O)cc1 [Example 217, (S)-4-(1-(5-(3,4-difluorophenyl)-1-(naphthalen-2-ylmethyl)-1H-indole-7-carboxamido)ethyl)benzoic acid] | – | < 100 nM
O=C(O)c1ccc(CNC(=O)c2cc(-c3ccc(F)c(F)c3)cc3cnn(Cc4ccc5ccccc5c4)c23)cc1 [Example 218, 4-((5-(3,4-difluorophenyl)-1-(naphthalen-2-ylmethyl)-1H-indazole-7-carboxamido)methyl)benzoic acid] | – | < 100 nM
C[C@H](NC(=O)c1cc(-c2ccc(F)c(F)c2)cc2cnn(Cc3ccc4ccccc4c3)c12)c1ccc(C(=O)O)cc1 [Example 219, (S)-4-(1-(5-(3,4-difluorophenyl)-1-(naphthalen-2-ylmethyl)-1H-indazole-7-carboxamido)ethyl)benzoic acid] | – | < 100 nM
C[C@H](NC(=O)c1cc(-c2ccc(F)c(F)c2)cc2cnn(Cc3cccc(C(F)(F)F)c3)c12)c1ccc(C(=O)O)cc1 [Example 220, (S)-4-(1-(5-(3,4-difluorophenyl)-1-(3-(trifluoromethyl)benzyl)-1H-indazole-7-carboxamido)ethyl)benzoic acid] | – | < 100 nM
((5-(3-cyano-5-fluorophenyl)-1-(4-(trifluoromethyl)benzyl)-1H-indole-7-carboxamido)methyl)benzoic acid [Example 77] | – | < 100 nM
